Source: ChEMBL document CHEMBL1649183, “Substrate-induced inactivation of the Escherichia coli AmiD N-acetylmuramoyl-L-alanine amidase highlights a new strategy to inhibit this class of enzyme” (Antimicrob Agents Chemother, 2009)
Activity calls are given as the source filed them. The calls are words filed in the database; no cut-off is given here.

Assays:
Escherichia coli [1] = assay: Inactivation of histidine6-tagged Escherichia coli LMG194 AmiD at 14 uM
Escherichia coli [2] = assay: Inactivation of histidine6-tagged Escherichia coli LMG194 AmiD at 27 uM

In the case of `CC(=O)N[C@H]1[C@@H]2OC[C@@H](O2)[C@@H](O[C@@H]2O[C@H](CO)[C@@H](O)C(O)[C@H]2NC(C)=O)[C@@H]1O[C@@H](C)C(=O)N[C@@H](C)C(=O)N[C@H](CCC(=O)N[C@H](CCC[C@H](N)C(=O)O)C(=O)N[C@H](C)C(=O)O)C(=O)O` (single isomer, unassigned), the inhibition (Escherichia coli [1]) is reported as “Active” and the inhibition (Escherichia coli [2]) is reported as “Active”.
